From PubChem BioAssay (NCI) come the findings set out here.

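Each compound was tested at five concentrations against cells in 96-well plates for 48 hours. TGI: total growth inhibition.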 Where only a bound is given, the exact number is not on record here.

The test system of the first test is COLO 205 colon. Description: inhibition of tumour cell growth, NCI panel, 48 h.
For `Cc1ccc(S(=O)(=O)OC[C@@H]2CO2)cc1`, the TGI is over 100 µM.

Regarding `C=C(C)C(=O)OC1C/C(CO)=C\C(O)C/C(C)=C/C2OC(=O)C(=C)C21` (stereo not drawn), the TGI was found to be 38.3 µM.

The next test concerns TK-10 renal. Description: inhibition of tumour cell growth, NCI panel, 48 h.
Compound `O=C(CC(=O)c1cccc2ccccc12)C(=O)Nc1ccc(Cl)cc1` yielded a TGI of over 100 µM.

Turning to `CCN(CC)CCSc1c2ccccc2nc2cc(NCC(=O)Nc3ccccc3-c3ccccc3NC(=O)CNc3ccc4c(SCCN(CC)CC)c5ccccc5nc4c3)ccc12`, the TGI is over 100 µM.

In turn, `Cc1ccc(S(=O)(=O)OC[C@@H]2CO2)cc1` returned a TGI of over 100 µM.

In the case of `C=C(C)C(=O)OC1C/C(CO)=C\C(O)C/C(C)=C/C2OC(=O)C(=C)C21` (stereo not drawn), the TGI worked out at 41.2 µM.

For another test, the system named is OVCAR-3 ovarian. Description: inhibition of tumour cell growth, NCI panel, 48 h.
`O=C(CC(=O)c1cccc2ccccc12)C(=O)Nc1ccc(Cl)cc1` showed a TGI of over 100 µM.

`CCN(CC)CCSc1c2ccccc2nc2cc(NCC(=O)Nc3ccccc3-c3ccccc3NC(=O)CNc3ccc4c(SCCN(CC)CC)c5ccccc5nc4c3)ccc12` gave a TGI of over 100 µM.

With `Cc1ccc(S(=O)(=O)OC[C@@H]2CO2)cc1`, the TGI was over 100 µM.

The compound `C=C(C)C(=O)OC1C/C(CO)=C\C(O)C/C(C)=C/C2OC(=O)C(=C)C21` (stereo not drawn) came in with a TGI of 59.4 µM.

The next test has as its system OVCAR-4 ovarian. Description: inhibition of tumour cell growth, NCI panel, 48 h.
In turn, `O=C(CC(=O)c1cccc2ccccc12)C(=O)Nc1ccc(Cl)cc1` displayed a TGI of over 100 µM.

Compound `CCN(CC)CCSc1c2ccccc2nc2cc(NCC(=O)Nc3ccccc3-c3ccccc3NC(=O)CNc3ccc4c(SCCN(CC)CC)c5ccccc5nc4c3)ccc12` had a TGI of over 100 µM.

`Cc1ccc(S(=O)(=O)OC[C@@H]2CO2)cc1`: the TGI was over 100 µM.

In turn, `C=C(C)C(=O)OC1C/C(CO)=C\C(O)C/C(C)=C/C2OC(=O)C(=C)C21` (stereo not drawn) yielded a TGI of 63.4 µM.

A further test relates to DLD-1 colon. Description: inhibition of tumour cell growth, NCI panel, 48 h.
On to `O=C(CC(=O)c1cccc2ccccc12)C(=O)Nc1ccc(Cl)cc1`, for which the TGI is over 100 µM.

On to `CCN(CC)CCSc1c2ccccc2nc2cc(NCC(=O)Nc3ccccc3-c3ccccc3NC(=O)CNc3ccc4c(SCCN(CC)CC)c5ccccc5nc4c3)ccc12`, for which the TGI is over 100 µM.

`Cc1ccc(S(=O)(=O)OC[C@@H]2CO2)cc1` gave a TGI of over 100 µM.

A further test deals with HOP-62 NSCLC. Description: inhibition of tumour cell growth, NCI panel, 48 h.
For the compound `O=C(CC(=O)c1cccc2ccccc12)C(=O)Nc1ccc(Cl)cc1`, the TGI is over 100 µM.

Compound `CCN(CC)CCSc1c2ccccc2nc2cc(NCC(=O)Nc3ccccc3-c3ccccc3NC(=O)CNc3ccc4c(SCCN(CC)CC)c5ccccc5nc4c3)ccc12` yielded a TGI of over 100 µM.

In the case of `Cc1ccc(S(=O)(=O)OC[C@@H]2CO2)cc1`, the TGI is over 100 µM.

`C=C(C)C(=O)OC1C/C(CO)=C\C(O)C/C(C)=C/C2OC(=O)C(=C)C21` (stereo not drawn) returned a TGI of over 100 µM.

The next test has as its system M19-MEL melanoma. Description: inhibition of tumour cell growth, NCI panel, 48 h.
`O=C(CC(=O)c1cccc2ccccc12)C(=O)Nc1ccc(Cl)cc1` displayed a TGI of over 100 µM.

Consider `CCN(CC)CCSc1c2ccccc2nc2cc(NCC(=O)Nc3ccccc3-c3ccccc3NC(=O)CNc3ccc4c(SCCN(CC)CC)c5ccccc5nc4c3)ccc12`, for which the TGI is over 54.7 µM.

As to `Cc1ccc(S(=O)(=O)OC[C@@H]2CO2)cc1`, the TGI was over 100 µM.

`C=C(C)C(=O)OC1C/C(CO)=C\C(O)C/C(C)=C/C2OC(=O)C(=C)C21` (stereo not drawn) registered a TGI of 92.7 µM.

In a further test the test system is SNB-19 CNS. Description: inhibition of tumour cell growth, NCI panel, 48 h.
On to `O=C(CC(=O)c1cccc2ccccc12)C(=O)Nc1ccc(Cl)cc1`, for which the TGI is over 100 µM.

Regarding `CCN(CC)CCSc1c2ccccc2nc2cc(NCC(=O)Nc3ccccc3-c3ccccc3NC(=O)CNc3ccc4c(SCCN(CC)CC)c5ccccc5nc4c3)ccc12`, the TGI was over 100 µM.

`Cc1ccc(S(=O)(=O)OC[C@@H]2CO2)cc1`: the TGI is over 100 µM.

Take `C=C(C)C(=O)OC1C/C(CO)=C\C(O)C/C(C)=C/C2OC(=O)C(=C)C21` (stereo not drawn): the TGI is over 100 µM.

The next test deals with A498 renal. Description: inhibition of tumour cell growth, NCI panel, 48 h.
Turning to `O=C(CC(=O)c1cccc2ccccc12)C(=O)Nc1ccc(Cl)cc1`, the TGI is over 100 µM.

Consider `CCN(CC)CCSc1c2ccccc2nc2cc(NCC(=O)Nc3ccccc3-c3ccccc3NC(=O)CNc3ccc4c(SCCN(CC)CC)c5ccccc5nc4c3)ccc12`, for which the TGI was over 100 µM.

In turn, `Cc1ccc(S(=O)(=O)OC[C@@H]2CO2)cc1` displayed a TGI of over 100 µM.

In a further test the test system is UACC-257 melanoma. Description: inhibition of tumour cell growth, NCI panel, 48 h.
`O=C(CC(=O)c1cccc2ccccc12)C(=O)Nc1ccc(Cl)cc1` registered a TGI of over 100 µM.

The compound `CCN(CC)CCSc1c2ccccc2nc2cc(NCC(=O)Nc3ccccc3-c3ccccc3NC(=O)CNc3ccc4c(SCCN(CC)CC)c5ccccc5nc4c3)ccc12` came in with a TGI of over 100 µM.

`Cc1ccc(S(=O)(=O)OC[C@@H]2CO2)cc1` yielded a TGI of over 100 µM.

The next test relates to HCT-116 colon. Description: inhibition of tumour cell growth, NCI panel, 48 h.
Compound `O=C(CC(=O)c1cccc2ccccc12)C(=O)Nc1ccc(Cl)cc1` gave a TGI of over 100 µM.

Regarding `CCN(CC)CCSc1c2ccccc2nc2cc(NCC(=O)Nc3ccccc3-c3ccccc3NC(=O)CNc3ccc4c(SCCN(CC)CC)c5ccccc5nc4c3)ccc12`, the TGI was over 100 µM.

In turn, `Cc1ccc(S(=O)(=O)OC[C@@H]2CO2)cc1` returned a TGI of over 100 µM.

Regarding `C=C(C)C(=O)OC1C/C(CO)=C\C(O)C/C(C)=C/C2OC(=O)C(=C)C21` (stereo not drawn), the TGI amounted to 37.1 µM.

The subject of a further test is U251 CNS. Description: inhibition of tumour cell growth, NCI panel, 48 h.
Compound `O=C(CC(=O)c1cccc2ccccc12)C(=O)Nc1ccc(Cl)cc1` showed a TGI of over 100 µM.

Turning to `CCN(CC)CCSc1c2ccccc2nc2cc(NCC(=O)Nc3ccccc3-c3ccccc3NC(=O)CNc3ccc4c(SCCN(CC)CC)c5ccccc5nc4c3)ccc12`, the TGI is over 100 µM.

`C=C(C)C(=O)OC1C/C(CO)=C\C(O)C/C(C)=C/C2OC(=O)C(=C)C21` (stereo not drawn): the TGI is over 100 µM.

A further test deals with RXF-631 renal. Description: inhibition of tumour cell growth, NCI panel, 48 h.
Consider `O=C(CC(=O)c1cccc2ccccc12)C(=O)Nc1ccc(Cl)cc1`, for which the TGI is over 100 µM.

Regarding `CCN(CC)CCSc1c2ccccc2nc2cc(NCC(=O)Nc3ccccc3-c3ccccc3NC(=O)CNc3ccc4c(SCCN(CC)CC)c5ccccc5nc4c3)ccc12`, the TGI is over 100 µM.

`Cc1ccc(S(=O)(=O)OC[C@@H]2CO2)cc1` registered a TGI of over 100 µM.

Compound `C=C(C)C(=O)OC1C/C(CO)=C\C(O)C/C(C)=C/C2OC(=O)C(=C)C21` (stereo not drawn) had a TGI of 36.7 µM.

A further test relates to SN12C renal. Description: inhibition of tumour cell growth, NCI panel, 48 h.
Compound `O=C(CC(=O)c1cccc2ccccc12)C(=O)Nc1ccc(Cl)cc1` showed a TGI of over 100 µM.

As for `CCN(CC)CCSc1c2ccccc2nc2cc(NCC(=O)Nc3ccccc3-c3ccccc3NC(=O)CNc3ccc4c(SCCN(CC)CC)c5ccccc5nc4c3)ccc12`, the TGI is over 100 µM.

The compound `Cc1ccc(S(=O)(=O)OC[C@@H]2CO2)cc1` showed a TGI of over 100 µM.

Turning to `C=C(C)C(=O)OC1C/C(CO)=C\C(O)C/C(C)=C/C2OC(=O)C(=C)C21` (stereo not drawn), the TGI was 38.8 µM.

Another test concerns MOLT-4 leukemia. Description: inhibition of tumour cell growth, NCI panel, 48 h.
`O=C(CC(=O)c1cccc2ccccc12)C(=O)Nc1ccc(Cl)cc1` showed a TGI of over 100 µM.

In the case of `CCN(CC)CCSc1c2ccccc2nc2cc(NCC(=O)Nc3ccccc3-c3ccccc3NC(=O)CNc3ccc4c(SCCN(CC)CC)c5ccccc5nc4c3)ccc12`, the TGI is over 76.9 µM.

`Cc1ccc(S(=O)(=O)OC[C@@H]2CO2)cc1` displayed a TGI of over 100 µM.
